Values belong to the compound of their own block, whether it stands above or below them.
What was measured:
Conditions in all cases: binder
AAK1 = AAK1 (Homo sapiens, UniProt Q2M2I8)
CK2a2 = CK2a2 (Homo sapiens, UniProt P19784)
CLK1 = CLK1 (Homo sapiens, UniProt P49759)
DRAK2 = target: T1, DRAK2 (Homo sapiens, UniProt O94768)
T1 sequence (O94768 1-372): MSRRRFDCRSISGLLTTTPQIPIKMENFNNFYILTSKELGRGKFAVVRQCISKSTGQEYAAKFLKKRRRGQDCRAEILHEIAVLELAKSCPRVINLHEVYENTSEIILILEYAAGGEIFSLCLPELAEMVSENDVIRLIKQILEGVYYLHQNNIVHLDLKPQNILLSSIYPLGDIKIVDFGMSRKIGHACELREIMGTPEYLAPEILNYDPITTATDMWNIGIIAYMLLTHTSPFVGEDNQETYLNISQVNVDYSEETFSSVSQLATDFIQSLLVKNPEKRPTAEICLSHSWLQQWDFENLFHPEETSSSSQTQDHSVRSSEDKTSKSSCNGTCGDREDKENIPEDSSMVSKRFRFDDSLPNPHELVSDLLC

EphB1 = target: T2, EphB1 (Homo sapiens, UniProt P54762)
T2 sequence (P54762 1-984): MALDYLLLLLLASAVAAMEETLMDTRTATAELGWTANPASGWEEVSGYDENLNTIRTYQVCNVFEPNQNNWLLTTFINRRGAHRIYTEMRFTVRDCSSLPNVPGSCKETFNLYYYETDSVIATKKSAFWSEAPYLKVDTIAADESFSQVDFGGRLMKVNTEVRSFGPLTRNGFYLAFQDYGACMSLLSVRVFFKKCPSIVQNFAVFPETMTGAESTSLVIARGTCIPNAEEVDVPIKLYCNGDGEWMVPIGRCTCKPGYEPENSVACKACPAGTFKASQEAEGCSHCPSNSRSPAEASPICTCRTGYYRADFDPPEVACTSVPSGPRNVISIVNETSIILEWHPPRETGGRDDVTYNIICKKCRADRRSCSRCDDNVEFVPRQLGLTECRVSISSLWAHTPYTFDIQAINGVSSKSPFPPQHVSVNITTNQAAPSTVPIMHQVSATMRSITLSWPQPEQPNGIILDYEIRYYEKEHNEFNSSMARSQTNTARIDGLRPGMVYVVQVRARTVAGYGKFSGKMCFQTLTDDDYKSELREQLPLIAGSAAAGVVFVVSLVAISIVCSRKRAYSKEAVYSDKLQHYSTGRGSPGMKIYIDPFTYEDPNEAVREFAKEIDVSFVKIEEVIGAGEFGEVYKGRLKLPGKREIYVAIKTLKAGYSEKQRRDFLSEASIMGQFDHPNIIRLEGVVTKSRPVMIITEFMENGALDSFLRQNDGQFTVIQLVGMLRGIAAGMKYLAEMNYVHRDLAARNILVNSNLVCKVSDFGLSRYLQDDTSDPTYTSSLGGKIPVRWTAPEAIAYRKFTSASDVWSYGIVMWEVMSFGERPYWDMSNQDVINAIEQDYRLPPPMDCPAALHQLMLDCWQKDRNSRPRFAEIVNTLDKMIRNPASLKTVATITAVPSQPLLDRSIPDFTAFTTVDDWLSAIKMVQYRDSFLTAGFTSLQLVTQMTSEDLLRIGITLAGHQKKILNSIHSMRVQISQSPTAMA

JNK3 = JNK3 (Homo sapiens, UniProt P53779)
Chain of JNK3 (P53779 whole entry): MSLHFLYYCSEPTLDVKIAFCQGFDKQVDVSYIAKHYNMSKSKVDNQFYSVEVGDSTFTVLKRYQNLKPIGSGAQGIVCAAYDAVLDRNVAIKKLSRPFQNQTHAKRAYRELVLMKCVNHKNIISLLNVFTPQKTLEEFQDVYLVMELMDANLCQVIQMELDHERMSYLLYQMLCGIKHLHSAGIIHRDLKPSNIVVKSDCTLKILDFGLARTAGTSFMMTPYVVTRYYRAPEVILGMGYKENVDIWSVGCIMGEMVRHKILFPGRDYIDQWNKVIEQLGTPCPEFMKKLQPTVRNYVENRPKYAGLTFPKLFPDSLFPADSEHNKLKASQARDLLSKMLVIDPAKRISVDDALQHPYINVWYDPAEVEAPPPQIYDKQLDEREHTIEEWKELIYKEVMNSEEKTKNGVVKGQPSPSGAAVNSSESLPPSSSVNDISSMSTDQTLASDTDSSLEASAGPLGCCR

MELK = MELK (Homo sapiens, UniProt Q14680)
Chain of MELK (Q14680 whole entry): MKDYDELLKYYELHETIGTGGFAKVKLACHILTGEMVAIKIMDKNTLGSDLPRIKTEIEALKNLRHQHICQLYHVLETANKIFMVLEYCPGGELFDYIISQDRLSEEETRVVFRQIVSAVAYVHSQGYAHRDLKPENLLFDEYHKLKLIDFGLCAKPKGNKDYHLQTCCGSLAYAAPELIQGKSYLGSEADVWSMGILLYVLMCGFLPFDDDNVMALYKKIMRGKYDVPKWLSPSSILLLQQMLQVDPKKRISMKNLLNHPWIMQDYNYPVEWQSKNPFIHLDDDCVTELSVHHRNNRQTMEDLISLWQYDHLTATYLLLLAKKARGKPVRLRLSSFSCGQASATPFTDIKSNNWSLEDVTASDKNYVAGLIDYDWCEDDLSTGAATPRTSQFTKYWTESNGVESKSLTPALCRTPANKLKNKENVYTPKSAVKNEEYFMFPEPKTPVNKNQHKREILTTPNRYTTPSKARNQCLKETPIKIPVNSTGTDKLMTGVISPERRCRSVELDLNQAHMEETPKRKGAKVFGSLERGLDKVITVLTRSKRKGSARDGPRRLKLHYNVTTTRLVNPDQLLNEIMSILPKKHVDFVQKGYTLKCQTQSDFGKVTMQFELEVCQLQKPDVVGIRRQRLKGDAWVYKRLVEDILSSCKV

MST1 = target: T3, MST1 (Homo sapiens, UniProt Q13043)
T3 sequence (Q13043 1-487): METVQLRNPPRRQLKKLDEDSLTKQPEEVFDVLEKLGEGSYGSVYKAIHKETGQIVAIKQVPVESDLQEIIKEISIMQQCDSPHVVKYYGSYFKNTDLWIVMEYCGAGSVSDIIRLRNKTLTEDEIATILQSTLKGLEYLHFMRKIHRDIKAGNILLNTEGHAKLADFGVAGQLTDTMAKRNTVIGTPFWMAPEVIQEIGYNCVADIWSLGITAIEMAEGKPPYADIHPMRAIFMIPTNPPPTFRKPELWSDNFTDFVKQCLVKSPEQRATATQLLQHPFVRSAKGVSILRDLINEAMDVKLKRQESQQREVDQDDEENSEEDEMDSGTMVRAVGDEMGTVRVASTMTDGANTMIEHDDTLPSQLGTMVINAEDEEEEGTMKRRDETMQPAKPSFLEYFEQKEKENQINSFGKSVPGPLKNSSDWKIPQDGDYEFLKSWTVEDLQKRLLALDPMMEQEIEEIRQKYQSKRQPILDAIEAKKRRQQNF

NEK2 = target: T4, NEK2 (Homo sapiens, UniProt P51955)
T4 sequence (P51955 1-445): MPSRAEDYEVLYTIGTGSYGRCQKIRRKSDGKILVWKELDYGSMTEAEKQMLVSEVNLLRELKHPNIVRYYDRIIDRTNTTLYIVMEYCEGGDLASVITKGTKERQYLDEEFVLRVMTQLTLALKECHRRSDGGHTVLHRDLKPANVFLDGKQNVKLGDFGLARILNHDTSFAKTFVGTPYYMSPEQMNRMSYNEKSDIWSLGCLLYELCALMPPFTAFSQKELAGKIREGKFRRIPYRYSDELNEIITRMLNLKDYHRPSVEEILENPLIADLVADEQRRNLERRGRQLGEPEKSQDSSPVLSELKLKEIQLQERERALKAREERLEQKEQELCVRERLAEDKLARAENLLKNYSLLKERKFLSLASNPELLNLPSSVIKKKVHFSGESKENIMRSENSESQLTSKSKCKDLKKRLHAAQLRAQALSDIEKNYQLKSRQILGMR

PAK4 = PAK4 (Homo sapiens, UniProt O96013)
Chain of PAK4 (O96013 whole entry): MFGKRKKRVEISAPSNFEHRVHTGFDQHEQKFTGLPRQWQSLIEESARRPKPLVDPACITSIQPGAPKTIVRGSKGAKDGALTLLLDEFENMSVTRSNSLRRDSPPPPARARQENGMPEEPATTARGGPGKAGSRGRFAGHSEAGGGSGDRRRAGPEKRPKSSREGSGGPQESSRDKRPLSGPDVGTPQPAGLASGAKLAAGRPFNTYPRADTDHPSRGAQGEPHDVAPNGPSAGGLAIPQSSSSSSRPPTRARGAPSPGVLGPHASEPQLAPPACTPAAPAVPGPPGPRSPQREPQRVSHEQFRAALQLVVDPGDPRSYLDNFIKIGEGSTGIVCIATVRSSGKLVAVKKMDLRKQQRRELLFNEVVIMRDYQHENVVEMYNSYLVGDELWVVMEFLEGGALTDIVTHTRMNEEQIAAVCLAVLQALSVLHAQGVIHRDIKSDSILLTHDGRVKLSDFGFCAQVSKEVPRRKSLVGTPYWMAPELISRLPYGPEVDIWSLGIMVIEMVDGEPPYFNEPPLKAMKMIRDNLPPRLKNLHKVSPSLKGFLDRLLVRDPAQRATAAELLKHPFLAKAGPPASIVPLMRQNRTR

Chain of CK2a2 (P19784 whole entry): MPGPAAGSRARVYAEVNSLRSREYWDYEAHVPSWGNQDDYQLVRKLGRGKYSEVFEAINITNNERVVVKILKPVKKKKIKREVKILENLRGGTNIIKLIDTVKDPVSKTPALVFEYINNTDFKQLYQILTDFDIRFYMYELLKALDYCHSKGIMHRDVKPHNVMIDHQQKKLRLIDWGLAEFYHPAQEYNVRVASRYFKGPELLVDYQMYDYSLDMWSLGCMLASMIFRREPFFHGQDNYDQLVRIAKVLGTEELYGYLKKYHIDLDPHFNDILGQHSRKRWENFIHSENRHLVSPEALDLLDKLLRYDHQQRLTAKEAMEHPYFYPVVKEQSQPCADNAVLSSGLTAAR
Chain of CLK1 (P49759 whole entry): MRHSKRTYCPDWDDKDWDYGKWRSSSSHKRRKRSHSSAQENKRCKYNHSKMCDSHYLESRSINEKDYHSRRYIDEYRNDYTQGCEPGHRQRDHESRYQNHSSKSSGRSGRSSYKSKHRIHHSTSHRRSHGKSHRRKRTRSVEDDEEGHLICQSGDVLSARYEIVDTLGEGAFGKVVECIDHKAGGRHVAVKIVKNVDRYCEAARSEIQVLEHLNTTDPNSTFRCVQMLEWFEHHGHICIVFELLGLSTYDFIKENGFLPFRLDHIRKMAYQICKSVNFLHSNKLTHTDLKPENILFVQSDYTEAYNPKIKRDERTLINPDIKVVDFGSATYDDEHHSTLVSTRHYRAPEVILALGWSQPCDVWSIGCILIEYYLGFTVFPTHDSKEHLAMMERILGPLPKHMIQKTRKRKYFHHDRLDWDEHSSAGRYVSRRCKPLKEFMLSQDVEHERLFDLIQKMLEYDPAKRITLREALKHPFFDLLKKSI
Chain of AAK1 (Q2M2I8 whole entry): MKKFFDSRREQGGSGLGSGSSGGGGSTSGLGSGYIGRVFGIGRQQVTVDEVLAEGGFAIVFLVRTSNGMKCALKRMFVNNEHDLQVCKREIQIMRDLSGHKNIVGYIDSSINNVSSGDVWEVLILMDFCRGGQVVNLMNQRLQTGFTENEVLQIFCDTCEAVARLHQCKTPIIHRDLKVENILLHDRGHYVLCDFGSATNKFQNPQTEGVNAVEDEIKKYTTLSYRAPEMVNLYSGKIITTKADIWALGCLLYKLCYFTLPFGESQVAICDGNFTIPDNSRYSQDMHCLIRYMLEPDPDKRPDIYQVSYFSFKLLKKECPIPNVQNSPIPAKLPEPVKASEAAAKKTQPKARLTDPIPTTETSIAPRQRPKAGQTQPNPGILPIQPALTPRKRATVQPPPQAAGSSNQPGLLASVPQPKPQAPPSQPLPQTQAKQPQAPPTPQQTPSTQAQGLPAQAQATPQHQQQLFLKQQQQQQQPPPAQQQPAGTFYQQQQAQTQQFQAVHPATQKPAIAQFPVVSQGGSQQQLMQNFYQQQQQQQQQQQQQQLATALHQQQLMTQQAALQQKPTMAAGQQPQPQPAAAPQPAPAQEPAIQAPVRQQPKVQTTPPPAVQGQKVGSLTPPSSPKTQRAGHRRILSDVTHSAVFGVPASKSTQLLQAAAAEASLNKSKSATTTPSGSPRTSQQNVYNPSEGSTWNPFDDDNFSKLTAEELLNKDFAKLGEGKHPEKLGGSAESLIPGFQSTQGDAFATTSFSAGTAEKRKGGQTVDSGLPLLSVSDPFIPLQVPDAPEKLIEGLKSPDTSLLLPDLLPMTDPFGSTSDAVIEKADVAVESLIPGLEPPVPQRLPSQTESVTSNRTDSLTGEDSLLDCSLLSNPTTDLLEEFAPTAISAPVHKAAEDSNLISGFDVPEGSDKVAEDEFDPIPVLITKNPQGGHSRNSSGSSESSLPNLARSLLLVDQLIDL

ΔTm 32 (AAK1): 4.0 °C
ΔTm 32 (CK2a2): -1.6 °C
ΔTm 32 (CLK1): 0.7 °C
ΔTm 32 (DRAK2): 12.2 °C
ΔTm 32 (EphB1): 6.6 °C
ΔTm 32 (JNK3): 4.5 °C
ΔTm 32 (MELK): 7.2 °C
ΔTm 32 (MST1): 1.6 °C
ΔTm 32 (NEK2): 10.1 °C
ΔTm 32 (PAK4): 7.9 °C
SMILES: Cc1cccc(-c2ccc(-c3cc4cnc(Nc5ccc(C)c(O)c5)nc4n(CCCCN)c3=O)c(Cl)c2)n1 [compound 32, 8-(4-Aminobutyl)-6-(2-chloro-4-(6-methylpyridin-2-yl)phenyl)-2-((3-hydroxy-4-methylphenyl)amino)pyrido[2,3-d]pyrimidin-7(8H)-one]

ΔTm 31 (AAK1): 4.0 °C
ΔTm 31 (CK2a2): -0.9 °C
ΔTm 31 (CLK1): 0.8 °C
ΔTm 31 (DRAK2): 11.7 °C
ΔTm 31 (EphB1): 6.6 °C
ΔTm 31 (JNK3): 4.7 °C
ΔTm 31 (MELK): 6.5 °C
ΔTm 31 (MST1): 2.0 °C
ΔTm 31 (NEK2): 10.8 °C
ΔTm 31 (PAK4): 8.5 °C
SMILES: Cc1cccc(-c2ccc(-c3cc4cnc(Nc5ccc(O)cc5)nc4n(CCCCN)c3=O)c(Cl)c2)n1 [compound 31, 8-(4-Aminobutyl)-6-(2-chloro-4-(6-methylpyridin-2-yl)phenyl)-2-((4-hydroxyphenyl)amino) pyrido[2,3-d]pyrimidin-7(8H)-one]

ΔTm 30 (AAK1): 4.1 °C
ΔTm 30 (CK2a2): -1.8 °C
ΔTm 30 (CLK1): -0.2 °C
ΔTm 30 (DRAK2): 12.3 °C
ΔTm 30 (EphB1): 6.5 °C
ΔTm 30 (JNK3): 4.6 °C
ΔTm 30 (MELK): 7.8 °C
ΔTm 30 (MST1): 1.7 °C
ΔTm 30 (NEK2): 11.6 °C
ΔTm 30 (PAK4): 9.0 °C
SMILES: Cc1cccc(-c2ccc(-c3cc4cnc(Nc5ccc(CCCO)cc5)nc4n(CCCCN)c3=O)c(Cl)c2)n1 [compound 30, 8-(4-Aminobutyl)-6-(2-chloro-4-(6-methylpyridin-2-yl)phenyl)-2-((4-(3-hydroxypropyl)phenyl)amino)pyrido[2,3-d]pyrimidin-7(8H)-one]

Continued, compound first:

SMILES: Cc1cccc(-c2ccc(-c3cc4cnc(NCCCN5CCCC5=O)nc4n(CCCCN)c3=O)c(Cl)c2)n1 [compound 27, MR30]
ΔTm MR30 (27) (AAK1): -0.5 °C
ΔTm MR30 (27) (CK2a2): -6.3 °C
ΔTm MR30 (27) (CLK1): -0.7 °C
ΔTm MR30 (27) (DRAK2): 0.8 °C
ΔTm MR30 (27) (EphB1): 3.0 °C
ΔTm MR30 (27) (JNK3): 1.7 °C
ΔTm MR30 (27) (MELK): 5.8 °C
ΔTm MR30 (27) (MST1): -1.0 °C
ΔTm MR30 (27) (NEK2): 6.2 °C
ΔTm MR30 (27) (PAK4): 2.8 °C

SMILES: Cc1cccc(-c2ccc(-c3cc4cnc(Nc5cc(C(F)(F)F)ccc5C)nc4n(CCCCN)c3=O)c(Cl)c2)n1 [compound 28, 8-(4-Aminobutyl)-6-(2-chloro-4-(6-methylpyridin-2-yl)phenyl)-2-((2-methyl-5-(trifluoromethyl)phenyl)amino)pyrido[2,3-d]pyrimidin-7(8H)-one]
ΔTm 28 (AAK1): -0.1 °C
ΔTm 28 (CK2a2): -4.2 °C
ΔTm 28 (CLK1): 0.6 °C
ΔTm 28 (DRAK2): 8.4 °C
ΔTm 28 (EphB1): 5.1 °C
ΔTm 28 (JNK3): 3.5 °C
ΔTm 28 (MELK): 1.8 °C
ΔTm 28 (MST1): -1.6 °C
ΔTm 28 (NEK2): 7.8 °C
ΔTm 28 (PAK4): 3.5 °C

SMILES: Cc1cccc(-c2ccc(-c3cc4cnc(NCCCN5CCNCC5)nc4n(CCCCN)c3=O)c(Cl)c2)n1 [compound 29, 8-(4-Aminobutyl)-6-(2-chloro-4-(6-methylpyridin-2-yl)phenyl)-2-((3-(piperazin-1-yl)propyl)amino)pyrido[2,3-d]pyrimidin-7(8H)-one]
ΔTm 29 (AAK1): 0.0 °C
ΔTm 29 (CK2a2): -1.6 °C
ΔTm 29 (CLK1): -0.3 °C
ΔTm 29 (DRAK2): 4.6 °C
ΔTm 29 (EphB1): 4.3 °C
ΔTm 29 (JNK3): 0.8 °C
ΔTm 29 (MELK): 6.5 °C
ΔTm 29 (MST1): -0.5 °C
ΔTm 29 (NEK2): 5.1 °C
ΔTm 29 (PAK4): 2.6 °C
